Structures can show the parent of a compound that is named as a salt.
Each compound was assayed on FL-SMN mRNA (SMN transcript containing exons 7 and 8) (assay: Live-cell assay to measure changes in FL-SMN mRNA levels (qPCR) after exposure to the compounds). Details: fibroblasts derived from patients SMA (GM03813); 24 hours incubation.
Type: cell-based, human
In short: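 SMA patient fibroblasts (GM03813) in DMEM/10% FBS were treated with compound (0.1% DMSO final) for 24 h. FL-SMN and Δ7 mRNA were measured by RT-qPCR against oligo DNA standard curves and normalised to GAPDH. Values are % of the DMSO control, binned by asterisk from ≥100% to ≥180%.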
In the case of `Cc1cn2cc(-c3ccc4nc(C5(C)CCN(C)CC5)[nH]c(=O)c4c3)ccc2n1` [Example 84, 2-(1,4-dimethylpiperidin-4-yl)-6-(2-methylimidazo[1,2-a]pyridin-6-yl)quinazolin-4(3H)-one], the “Percentage of increase (FL-SMN mRNA standardized against GAPDH, DMSO control set as 100%)” value is reported as “* (equal to or higher than 100% but lower than 120%)”. For `COCCN1CCC(c2nc3cnc(-c4cc(F)c5nc(C)cn5c4)cc3c(=O)[nH]2)CC1` [Example 112, 6-(8-fluoro-2-methylimidazo[1,2-a]pyridin-6-yl)-2-[1-(2-methoxyethyl)piperidin-4-yl]pyrido[3,4-d]pyrimidin-4(3H)-one], the “Percentage of increase (FL-SMN mRNA standardized against GAPDH, DMSO control set as 100%)” value was “**** (equal to or higher than 180%)”. `Cc1nc2c(C)cc(-c3ccc4nc(C5CCN(C)CC5)[nH]c(=O)c4c3)cc2o1` [Example 71, 6-(2,4-dimethyl-1,3-benzoxazol-6-yl)-2-(1-methylpiperidin-4-yl)quinazolin-4(3H)-one] was tested, and the “Percentage of increase (FL-SMN mRNA standardized against GAPDH, DMSO control set as 100%)” value was “* (equal to or higher than 100% but lower than 120%)”. For `Cc1cn2nc(-c3nc4ccc(N5CCN6CCC[C@@H]6C5)cc4c(=O)[nH]3)cc2c(C)n1` [Example 126, (R)-2-(4,6-dimethylpyrazolo[1,5-a]pyrazin-2-yl)-6-(hexahydropyrrolo[1,2-a]pyrazin-2(1H)-yl)quinazolin-4(3H)-one], the “Percentage of increase (FL-SMN mRNA standardized against GAPDH, DMSO control set as 100%)” value was “**** (equal to or higher than 180%)”. In the case of `CCN1CCN(c2ccc3nc(-c4cc5c(C)nc(C)cn5n4)[nH]c(=O)c3c2)[C@H](C)C1` [Example 131, (R)-2-(4,6-dimethylpyrazolo[1,5-a]pyrazin-2-yl)-6-(4-ethyl-2-methylpiperazin-1-yl)quinazolin-4(3H)-one], the “Percentage of increase (FL-SMN mRNA standardized against GAPDH, DMSO control set as 100%)” value is reported as “*** (equal to or higher than 150% but lower than 180%)”. `Cc1cn2nc(-c3nc4ccc(N5CCN6CCCCC6C5)cc4c(=O)[nH]3)cc2c(C)n1` (stereo not drawn) [Example 125, 2-(4,6-dimethylpyrazolo[1,5-a]pyrazin-2-yl)-6-(octahydro-2H-pyrido[1,2-a]pyrazin-2-yl)quinazolin-4(3H)-one (distomer)] was tested, and the “Percentage of increase (FL-SMN mRNA standardized against GAPDH, DMSO control set as 100%)” value was “** (equal to or higher than 120% but lower than 150%)”. In the case of `Cc1cn2cc(-c3ccc4nc(C5CCN(C)CC5)[nH]c(=O)c4c3)cc(C(F)(F)F)c2n1` [Example 75, 2-(1-methylpiperidin-4-yl)-6-[2-methyl-8-(trifluoromethyl)imidazo [1,2-a]pyridin-6-yl]quinazolin-4(3H)-one], the “Percentage of increase (FL-SMN mRNA standardized against GAPDH, DMSO control set as 100%)” value is reported as “** (equal to or higher than 120% but lower than 150%)”. In the case of `Cc1nc2ccc(-c3ccc4nc(C5CCN(C)CC5)[nH]c(=O)c4c3)cn2c1C` [Example 67, 6-(2,3-dimethylimidazo[1,2-a]pyridin-6-yl)-2-(1-methylpiperidin-4-yl)quinazolin-4(3H)-one], the “Percentage of increase (FL-SMN mRNA standardized against GAPDH, DMSO control set as 100%)” value is reported as “** (equal to or higher than 120% but lower than 150%)”. For `Cc1cn2c(C)c(-c3ccc4nc(C5CCN(C)CC5)[nH]c(=O)c4c3)ccc2n1` [Example 61, 6-(2,5-dimethylimidazo[1,2-a]pyridin-6-yl)-2-(1-methylpiperidin-4-yl)quinazolin-4(3H)-one], the “Percentage of increase (FL-SMN mRNA standardized against GAPDH, DMSO control set as 100%)” value was “* (equal to or higher than 100% but lower than 120%)”. `Cc1cn2nc(-c3nc4ccc(C5CCN(C)CC5)cc4c(=O)[nH]3)cc2c(C)n1` [Example 2, 2-(4,6-Dimethylpyrazolo[1,5-a]pyrazin-2-yl)-6-(1-methylpiperidin-4-yl)quinazolin-4(3H)-one] was tested, and the “Percentage of increase (FL-SMN mRNA standardized against GAPDH, DMSO control set as 100%)” value was “**** (equal to or higher than 180%)”. With `Cc1nc2c(F)cc(-c3cc4c(=O)[nH]c(C5CCN(C6CC6)CC5)nc4cn3)cc2o1` [Example 115, 2-(1-cyclopropylpiperidin-4-yl)-6-(4-fluoro-2-methyl-1,3-benzoxazol-6-yl)pyrido[3,4-d]pyrimidin-4(3H)-one] the “Percentage of increase (FL-SMN mRNA standardized against GAPDH, DMSO control set as 100%)” value was “**** (equal to or higher than 180%)”. In the case of `Cc1cn2nc(-c3nc4ccc(N5CCN(C)CC5)cc4c(=O)[nH]3)cc2c(C)n1` [Example 6, 2-(4,6-Dimethylpyrazolo[1,5-α]pyrazin-2-yl)-6-(4-methylpiperazin-1-yl)quinazolin-4(3H)-one dihydrochloride], the “Percentage of increase (FL-SMN mRNA standardized against GAPDH, DMSO control set as 100%)” value is reported as “**** (equal to or higher than 180%)”. `Cc1cn2cc(-c3nc4ccc(N5CCN(C)CC5)cc4c(=O)[nH]3)ccc2n1` [Example 58, 2-(2-methylimidazo[1,2-a]pyridin-6-yl)-6-(4-methylpiperazin-1-yl)quinazolin-4(3H)-one] was tested, and the “Percentage of increase (FL-SMN mRNA standardized against GAPDH, DMSO control set as 100%)” value was “** (equal to or higher than 120% but lower than 150%)”. In the case of `Cc1nc2c(F)cc(-c3ccc4nc(C5CCN(C(C)C)CC5)[nH]c(=O)c4c3)cc2o1` [Example 38, 6-(4-Fluoro-2-methyl-1,3-benzoxazol-6-yl)-2-(1-isopropylpiperidin-4-yl)quinazolin-4(3H)-one], the “Percentage of increase (FL-SMN mRNA standardized against GAPDH, DMSO control set as 100%)” value is reported as “**** (equal to or higher than 180%)”. For `Cc1cn2cc(-c3ccc4nc(C5(F)CCN(C(C)C)CC5)[nH]c(=O)c4c3)cc(F)c2n1` [Example 91, 2-(4-fluoro-1-isopropylpiperidin-4-yl)-6-(8-fluoro-2-methylimidazo[1,2-a]pyridin-6-yl)quinazolin-4(3H)-one], the “Percentage of increase (FL-SMN mRNA standardized against GAPDH, DMSO control set as 100%)” value was “**** (equal to or higher than 180%)”. With `Cc1cn2cc(-c3ccc4nc(C5CCN(C)CC5)[nH]c(=O)c4c3)cc(Cl)c2n1` [Example 17, 6-(8-Chloro-2-methylimidazo[1,2-α]pyridin-6-yl)-2-(1-methylpiperidin-4-yl)quinazolin-4(3H)-one] the “Percentage of increase (FL-SMN mRNA standardized against GAPDH, DMSO control set as 100%)” value was “*** (equal to or higher than 150% but lower than 180%)”. With `Cc1cn2nc(-c3nc4ccc(N5CCN(C)C[C@@H]5C)cc4c(=O)[nH]3)cc2c(C)n1` [Example 127, (S8)-6-(2,4-simethylpiperazin-1-yl)-2-(4,6-dimethylpyrazolo[1,5-a]pyrazin-2-yl)quinazolin-4(3H)-one] the “Percentage of increase (FL-SMN mRNA standardized against GAPDH, DMSO control set as 100%)” value was “*** (equal to or higher than 150% but lower than 180%)”. `Cc1cn2cc(-c3cc(F)c4nc(C5CCN(C6CC6)CC5)[nH]c(=O)c4c3)cc2cn1` [Example 33, 2-(1-cyclopropylpiperidin-4-yl)-8-fluoro-6-(3-methylpyrrolo[1,2-a]pyrazin-7-yl)quinazolin-4(3H)-one acetate] was tested, and the “Percentage of increase (FL-SMN mRNA standardized against GAPDH, DMSO control set as 100%)” value was “*** (equal to or higher than 150% but lower than 180%)”. For `Cc1cn2cc(-c3cc(C)c4nc(C5CCN(C)CC5)[nH]c(=O)c4c3)ccc2n1` [Example 19, 8-Methyl-6-(2-methylimidazo[1,2-α]pyridin-6-yl)-2-(1-methylpiperidin-4-yl)quinazolin-4(3H)-one], the “Percentage of increase (FL-SMN mRNA standardized against GAPDH, DMSO control set as 100%)” value was “**** (equal to or higher than 180%)”. `Cc1cn2cc(-c3cc(C)c4nc(C5(F)CCN(C)CC5)[nH]c(=O)c4c3)cc(F)c2n1` [Example 89, 6-(8-fluoro-2-methylimidazo[1,2-a]pyridin-6-yl)-2-(4-fluoro-1-methylpiperidin-4-yl)-8-methylquinazolin-4(3H4)-one] was tested, and the “Percentage of increase (FL-SMN mRNA standardized against GAPDH, DMSO control set as 100%)” value was “**** (equal to or higher than 180%)”. For `Cc1cn2nc(-c3nc4ccc(N5CCNC6(CC6)C5)cc4c(=O)[nH]3)cc2c(C)n1` [Example 123, 2-(4,6-dimethylpyrazolo[1,5-a]pyrazin-2-yl)-6-(4,7-diazaspiro[2.5Joctan-7-yl)quinazolin-4(3H)-one bistrifluoroacetate], the “Percentage of increase (FL-SMN mRNA standardized against GAPDH, DMSO control set as 100%)” value was “**** (equal to or higher than 180%)”. `Cc1nc2cc(-c3ccc4nc(C5CCN(C)CC5)[nH]c(=O)c4c3)ccc2o1` [Example 72, 6-(2-methyl-1,3-benzoxazol-5-yl)-2-(1-methylpiperidin-4-yl)quinazolin-4(3H)-one] was tested, and the “Percentage of increase (FL-SMN mRNA standardized against GAPDH, DMSO control set as 100%)” value was “* (equal to or higher than 100% but lower than 120%)”. With `Cc1nn(C)c2cc(F)c(-c3nc4ccc(N5CCN(C)CC5)cc4c(=O)[nH]3)cc12` [Example 59, 2-(6-fluoro-1,3-dimethyl-1H-indazol-5-yl)-6-(4-methylpiperazin-1-yl)quinazolin-4(3H)-one] the “Percentage of increase (FL-SMN mRNA standardized against GAPDH, DMSO control set as 100%)” value was “* (equal to or higher than 100% but lower than 120%)”. With `Cc1cn2cc(-c3cc(F)c4nc(C5(F)CCN(C)CC5)[nH]c(=O)c4c3)ccc2n1` [Example 94, 8-fluoro-2-(4-fluoro-1-methylpiperidin-4-yl)-6-(2-methylimidazo[1,2-a]pyridin-6-yl)quinazolin-4(3H)-one] the “Percentage of increase (FL-SMN mRNA standardized against GAPDH, DMSO control set as 100%)” value was “*** (equal to or higher than 150% but lower than 180%)”. With `Cc1cn2cc(-c3cc(C)c4nc(C5(F)CCN(C6CC6)CC5)[nH]c(=O)c4c3)cnc2n1` [Example 103, 2-(1-cyclopropyl-4-fluoropiperidin-4-yl)-6-(2-methylimidazo[1,2-a]pyrimidin-6-yl)-8-methylquinazolin-4(3H4)-one] the “Percentage of increase (FL-SMN mRNA standardized against GAPDH, DMSO control set as 100%)” value was “** (equal to or higher than 120% but lower than 150%)”. In the case of `Cc1cn2cc(-c3ccc4nc(C5CCN(CC(F)(F)F)CC5)[nH]c(=O)c4c3)ccc2n1` [Example 73, 6-(2-methylimidazo[1,2-a]pyridin-6-yl)-2-[1-(2,2,2-trifluoroethyl)piperidin-4-yl]quinazolin-4(3H)-one], the “Percentage of increase (FL-SMN mRNA standardized against GAPDH, DMSO control set as 100%)” value is reported as “* (equal to or higher than 100% but lower than 120%)”. In the case of `CCc1nc(C)cn2nc(-c3nc4ccc(N5CCN(C)CC5)cc4c(=O)[nH]3)cc12` [Example 5, 2-(4-Ethyl-6-methylpyrazolo[1,5-α]pyrazin-2-yl)-6-(4-methylpiperazin-1-yl)quinazolin-4(3H)-one], the “Percentage of increase (FL-SMN mRNA standardized against GAPDH, DMSO control set as 100%)” value is reported as “*** (equal to or higher than 150% but lower than 180%)”.
